# US20250066288A1, “DIHYDRAZIDE-DIHYDRAZONE COMPOUNDS WITH ADAMANTYL MOIETY AND A PROCESS FOR SYNTHESIS OF THE SAME” (priority 2022, published 2025)
# Like-named read-outs stand apart in the source and are kept apart here.
# What was measured:
# [1] = system: Staphylococcus aureus (ATCC 6538); test: Antimicrobial activity test by tube dilution method, bacteria; type: cell-based; details: for killing at 50000 µg/mL: Staphylococcus aureus, ATCC6538, 0.05 h, read-out: S. aureus % killing
# Protocol: (§1) The antimicrobial activity of the compounds was determined by tube dilution method. Powdery compounds were taken in closed glass vials and were tested against Staphylococcus aureus (ATCC 6538) (bacteria) and Candida Albicans (ATCC 10231) (Fungi). 50 mg of the sample was taken in 1 ml of DMSO and the contact time for the sample was maintained as 3 minutes. The medium for microorganisms was Soyabean Casein Digest Agar for bacteria and Sabouraud's Dextrose Agar for fungi. The incubation time for bacteria was 2 days at 30-35° C. while for fungi was 3-5 days at 20-25° C.
# [2] = system: Candida Albicans (ATCC 10231); test: Antimicrobial activity test by tube dilution method, fungi; type: cell-based; details: for killing at 50000 µg/mL: Candida albicans, ATCC10231, 0.05 h, read-out: C. albicans % killing
# Protocol: as §1
# [3] = 50 mg sample in 1 ml DMSO, contact time 3 minutes, Soyabean Casein Digest Agar, 2 days at 30-35° C.
# [4] = 50 mg sample in 1 ml DMSO, contact time 3 minutes, Sabouraud's Dextrose Agar, 3-5 days at 20-25° C.
SMILES,"S. aureus Final Count [1, 3]",killing at 50000 µg/mL [1] [%],"C. albicans Final Count [2, 4]",killing at 50000 µg/mL [2] [%],"killing at 50000 µg/mL [1, 3] [%]","killing at 50000 µg/mL [2, 4] [%]","S. aureus % killing [1, 3] [%]","C. albicans % killing [2, 4] [%]"
"O=C(N/N=C\c1ccc([N+](=O)[O-])cc1)C12CC3CC(C1)CC(C(=O)N/N=C/c1ccc([N+](=O)[O-])cc1)(C3)C2 [Compound 5a, Bis [N′-(4-nitro)benzylidene]adamantane-1,3-dicarbohydrazide]",0,100,0,100,,,,
"COc1cc(/C=N\NC(=O)C23CC4CC(C2)CC(C(=O)N/N=C/c2ccc(O)c(OC)c2)(C4)C3)ccc1O [Compound 5b, Bis [N′-(3-methoxy, 4-hydroxy)benzylidene]adamantane-1,3-dicarbohydrazide]",1680000,,0,,90.3,100,,
"C/C(=N/NC(=O)C12CC3CC(C1)CC(C(=O)N/N=C(\C)c1cc(C)ccc1O)(C3)C2)c1cc(C)ccc1O [Compound 5c, Bis [N′-(1-(2-hydroxy, 5-methyl phenyl)ethylidene)]adamantane-1,3-dicarbohydrazide]",2980000,,10,,82.9,100,,
COc1ccc(/C=N\NC(=O)C23CC4CC(C2)CC(C(=O)N/N=C/c2ccc(OC)c(OC)c2)(C4)C3)cc1OC [Compound 5d],10300000,,0,,50.2,100,,
"CCOc1ccc(/C(C)=N\NC(=O)C23CC4CC(C2)CC(C(=O)N/N=C(\C)c2ccc(OCC)cc2)(C4)C3)cc1 [Compound 5e, Bis [N′-(1-(4-ethoxy)ethylidene)]adamantane-1,3-dicarbohydrazide]",16400000,,0,,16.8,100,,
O=C(N/N=C\c1ccc2ccccc2c1)C12CC3CC(C1)CC(C(=O)N/N=C/c1ccc4ccccc4c1)(C3)C2 [Compound 5f],16000000,,0,,20.4,100,,
O=C(N/N=C/c1ccc([N+](=O)[O-])o1)C12CC3CC(C1)CC(C(=O)N/N=C/c1ccc([N+](=O)[O-])o1)(C3)C2 [Compound 5g],10,100,0,100,,,,
"COc1cc(/C=N\NC(=O)C23CC4CC(C2)CC(C(=O)N/N=C/c2cc(OC)c(O)c([N+](=O)[O-])c2)(C4)C3)cc([N+](=O)[O-])c1O [Compound 5h, Bis [N′-(3-nitro, 4-hydroxy, 5-methoxy)benzylidene]adamantane-1,3-dicarbohydrazide]",0,100,0,100,,,,
"Cc1ccc(/C=N/NC(=O)C23CC4CC(C2)CC(C(=O)N/N=C/c2ccc(C)cc2)(C4)C3)cc1 [Compound 5i, Bis[N′-(4-methyl)benzylidene]adamantane-1,3-dicarbohydrazide]",3120000,,0,,85,100,,
"O=C(N/N=C/c1ccc(O)cc1)C12CC3CC(C1)CC(C(=O)N/N=C/c1ccc(O)cc1)(C3)C2 [Compound 5j, Bis[N′-(4-hydroxy)benzylidene]adamantane-1,3-dicarbohydrazide]",550000,,0,,97.2,100,,
"C/C(=N\NC(=O)C12CC3CC(C1)CC(C(=O)N/N=C(\C)c1ccc(O)cc1)(C3)C2)c1ccc(O)cc1 [Compound 5k, Bis[N′-(1-(4-hydroxyphenyl)ethylidene)]adamantane-1,3-dicarbohydrazide]",7500000,,0,,60.3,100,,
"COc1cc(/C=N/NC(=O)C23CC4CC(C2)CC(C(=O)N/N=C/c2cc(Br)c(O)c(OC)c2)(C4)C3)cc(Br)c1O [Compound 5l, Bis[N′-(3-bromo,4hydroxy,5-methoxy)benzylidene]adamantane-1,3-dicarbohydrazide]",0,,0,,100,100,,
O=C(N/N=C\c1cccs1)C12CC3CC(C1)CC(C(=O)N/N=C/c1cccs1)(C3)C2 [Compound 5m],1230000,,0,,93.4,100,,
"CCOc1ccc(/C=N/NC(=O)C23CC4CC(C2)CC(C(=O)N/N=C/c2ccc(OCC)cc2)(C4)C3)cc1 [Compound 5n, Bis[N′-(4-ethoxy)benzylidene]adamantane-1,3-dicarbohydrazide]",10,,0,,100,100,,
"O=C(NN=Cc1ccc(Cl)c([N+](=O)[O-])c1)C12CC3CC(C1)CC(C(=O)NN=Cc1ccc(Cl)c([N+](=O)[O-])c1)(C3)C2 [Compound 5o, Bis[N′-(3-nitro,4-chloro)benzylidene]adamantane-1,3-dicarbohydrazide]",18400000,,0,,,,9.36,100.00
"O=C(N/N=C/c1ccc(Br)cc1)C12CC3CC(C1)CC(C(=O)N/N=C/c1ccc(Br)cc1)(C3)C2 [Compound 5p, Bis[N′-(4-bromo)benzylidene]adamantane-1,3-dicarbohydrazide]",2310000,,0,,88.7,100,,
"COc1ccc(/C=N/NC(=O)C23CC4CC(C2)CC(C(=O)N/N=C/c2ccc(OC)cc2)(C4)C3)cc1 [Compound 5q, Bis[N′-(4-methoxy)benzylidene]adamantane-1,3-dicarbohydrazide]",14400000,,0,,26.1,100,,
"CC(=NNC(=O)C12CC3CC(C1)CC(C(=O)NN=C(C)c1ccc(Cl)c([N+](=O)[O-])c1)(C3)C2)c1ccc(Cl)c([N+](=O)[O-])c1 [Compound 5r, Bis[N′-(1-(3-nitro,4-chloro)ethylidene)]adamantane-1,3-dicarbohydrazide]",5100000,,0,,,,74.24,100.00
